Experiments:
SK-RC-52 tumor = assay: Biodistribution study (SPECT/CT) in SK-RC-52 tumor-bearing mice with or without gelofusine; type: in vivo, NMRI nude mice; conditions: SK-RC-52, In-111-labeled; for % remaining tumor uptake at 24 h p.i.: Mean ± SEM
human CAIX = human CAIX (Homo sapiens, UniProt Q16790); assay: Radioligand saturation binding and equilibration on CHO-huCAIX; parameters: host or cells: CHO-VGT / CHO cells
Procedure: After attainment of equilibrium, the cells were harvested, and the bound fraction of the compounds was measured. The resulting saturation binding data were analyzed using Graph Pad Prism 8.3.
CHO cells transfected with human, dog, and mouse CAIX (CHO-huCA9 T04J-1/20 K1, CHO-dogCA9 T05J-9/20 K4, CHO-murCA9 T05J-3/20 K4) were obtained from InSCREENex (Germany).
A molar excess of 3BP-3565 was used as a blocking peptide to assess non-specific binding in autoradiographic studies. 3BP-3565 binds with a similar affinity to CAIX and blocks binding sites of test compounds. For the blocking solution, a 10 mM stock solution of 3BP-3565 was prepared by dissolution in DMSO.
CHO cells were maintained in Ham's medium supplemented with 10% fetal bovine serum, 2 mM L-glutamine, 100 U/mL Penicillin and 0.1 mg/mL streptomycin under standard cell culture conditions. The cells were grown in uncoated cell culture flasks (150 cm^2, Biochrom) to subconfluence and then split 1:2-1:3. Approximately 24 hours before the assay, cells were detached by incubation with Accutase and carefully tapping the flasks. Detached cells were resuspended in medium and collected by centrifugation (300 g, 5 min, RT). Cell pellets were resuspended in cell culture medium and counted using a particle counter (CASY Model TT, Scharfe Systems, Germany). Cell concentrations were adjusted to 3×10^5 mL^−1, and 1.000 μL per well of the suspension were dispensed into poly-D-lysine-coated flat-clear-bottom 24 well plates.
Compound radiolabeling was performed as follows. […] Then, 25 mg/mL methionine in 1 M sodium acetate buffer pH 5 was added at a final concentration of 0.1 M sodium acetate. Subsequently, the mixture was heated to 80° C. for 25 min, followed by cooling for 5 minutes. Finally, 20 μL of 200 mg/mL ascorbic acid solution, 2.5 μL of 5 mg/mL DTPA and 2.5 μL of 5% TWEEN-20 per 100 μL reaction mixture were added, resulting in the concentrated study solution. For quality control, an aliquot of the labeling solution was diluted 1:40 with 0.1% TWEEN-20 in 0.1 M sodium acetate buffer pH 5. Five microliters of the diluted labeling solution were injected onto a Poroshell SB-C18 2.1×50 mm, 2.7 μm column. HPLC analysis was performed as follows: Gradient A: H2O, 0.1% TFA, Gradient B: Acetonitrile (MeCN), gradient from 5% B to 70% B within 15 min, flow rate of 0.5 mL/min; detector: NaI, DAD 215 nm. The peak eluting with the dead volume represents free radionuclide, the peak eluting with the ligand-specific retention time as determined with a non-labeled sample represents the radiolabeled compound.
The assessment of the time needed until attainment of equilibration on CHO-huCAIX and CHO-dgCAIX was performed as follows. The 10 mM 3BP-3565 stock solution was diluted with assay medium (Ham's medium without additives) to prepare an 8-μM blocking working solution. The radiolabeling mixtures were diluted with assay medium to prepare 160 nM radioligand working solutions. Subsequently, 1.6 and 3.2 nM radioligand dilutions were prepared by diluting the radioligand working solutions 1:100 and 1:50, respectively, with assay medium. Approximately 24 hours after re-seeding (3×10^5 mL^−1 cells per well), the medium was aspirated, and the cells were washed once with assay medium (700 μL). To determine total binding, 700 μL of binding medium and 100 μL of the radioligand dilutions were added to the wells in triplicates.
To determine non-specific binding, 600 μL of binding medium, 100 μL of the […] 3BP-3565 blocking solution and 100 μL of the radioligand dilutions were added to the wells in triplicates. The plates were incubated for 1 h, 3 h, 6 h, and 8 h at 37° C. under standard cell culture conditions (5% CO2). At the end of the incubation time, the plates were placed on ice while aspirating the radioligand solutions. Subsequently, the cells were washed with ice-cold PBS (0.5 mL, 1 mL, 1 mL). […]

[1] = Biodistribution study in healthy dog (SPECT/CT, blood pharmacokinetics, urine excretion); conditions: in vivo

SMILES | Time to peak uptake in tumor (SK-RC-52 tumor; 4% gelofusine before) [h] | % remaining tumor uptake at 24 h p.i. (SK-RC-52 tumor; 4% gelofusine before) [%] | Time to peak uptake in tumor (SK-RC-52 tumor; no gelofusine) [h] | % remaining tumor uptake at 24 h p.i. (SK-RC-52 tumor; no gelofusine) [%] | Kd (human CAIX; Mean pKd ± SD, CHO-huCAIX) [nM] | Kd (human CAIX; pKd, CHO-huCAIX, first independent experiment) [nM] | Kd (human CAIX; pKd, CHO-huCAIX, second independent experiment) [nM] | Kd (human CAIX; pKd, human CAIX expressed in CHO cells, 8 h at 37°C) [nM] | half-life [1] [min] | half-life ([1]; iv) [min]
CC(C)C[C@@H]1NC(=O)[C@H](Cc2cccc(NC(=O)CCCS(N)(=O)=O)c2)NC(=O)[C@H](CC(=O)O)NC(=O)[C@H]2CCCN2C(=O)[C@H](CCC(=O)O)NC(=O)[C@@H](NC(=O)[C@H](CCC(N)=O)NC(=O)CN2CCN(C(=O)CN3CCN(CC(=O)O)CCN(CC(=O)O)CCN(CC(=O)O)CC3)CC2)CSCc2cccc(c2)CSC[C@@H](C(N)=O)NC(=O)[C@H](CO)NC(=O)[C@H](Cc2c[nH]c3ccccc23)NC(=O)[C@H]([C@@H](C)O)NC1=O [DPI-4452, DOTA-PPAc-Gln-[Cys(3MeBn)-Glu-pro-Asp-Af3(Cpsu)-Leu-Thr-Trp-Ser-Cys]-NH2] | 4 | 69.6 ± 6.6 | 1 | 73.3 ± 0.8 |  |  |  |  |  | 
CC(C)C[C@@H]1NC(=O)[C@H](Cc2cccc(NC(=O)CCCS(N)(=O)=O)c2)NC(=O)[C@H](CC(=O)O)NC(=O)[C@H]2CCCN2C(=O)[C@H](CCC(=O)O)NC(=O)[C@@H](NC(=O)[C@H](CCC(N)=O)NC(=O)CN2CCN(C(=O)CN3CCN(CC(=O)O)CCN(CC(=O)O)CCN(CC(=O)O)CC3)CC2)CSCc2cccc(c2)CSC[C@@H](C(N)=O)NC(=O)[C@H](CO)NC(=O)[C@H](Cc2c[nH]c3ccccc23)NC(=O)[C@H]([C@@H](C)O)NC1=O [[^111In]In-DPI-4452, metal not drawn] |  |  |  |  | 0.316 | 0.2 | 0.501 | ≤ 1 | 55.6 | 5.43

Reference: US20250339569A1, “CARBONIC ANHYDRASE IX LIGANDS” (priority 2021, published 2025)
